Target: T1, human ACC2 (Homo sapiens, UniProt O00763)
T1 construct: made in house; host or cells: insect cells (baculoviral expression system)
Experiment: ACC2 assay, spectrophotometric 384 well assay (NADH-linked, coupled lactate dehydrogenase/pyruvate kinase)
Format: biochemical
Settings: ACC2 assay, hACC2 construct lacking 128 N-terminal amino acids, 25° C., 340 nm; read-out: IC50
In short: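 ADP output tracked via pyruvate kinase/lactate dehydrogenase NADH oxidation, slope at 340 nm over 15 min, 25° C, with 500 μM ATP and 200 μM each acetyl-CoA and NADH. Enzyme: insect-cell-expressed human ACC2, N-terminal 128 residues deleted; pH 7.5 Tris with citrate, KHCO3. IC50 from four-parameter regression versus vehicle and no-acetyl-CoA controls.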

T1 sequence (O00763 129-2458 limits assumed): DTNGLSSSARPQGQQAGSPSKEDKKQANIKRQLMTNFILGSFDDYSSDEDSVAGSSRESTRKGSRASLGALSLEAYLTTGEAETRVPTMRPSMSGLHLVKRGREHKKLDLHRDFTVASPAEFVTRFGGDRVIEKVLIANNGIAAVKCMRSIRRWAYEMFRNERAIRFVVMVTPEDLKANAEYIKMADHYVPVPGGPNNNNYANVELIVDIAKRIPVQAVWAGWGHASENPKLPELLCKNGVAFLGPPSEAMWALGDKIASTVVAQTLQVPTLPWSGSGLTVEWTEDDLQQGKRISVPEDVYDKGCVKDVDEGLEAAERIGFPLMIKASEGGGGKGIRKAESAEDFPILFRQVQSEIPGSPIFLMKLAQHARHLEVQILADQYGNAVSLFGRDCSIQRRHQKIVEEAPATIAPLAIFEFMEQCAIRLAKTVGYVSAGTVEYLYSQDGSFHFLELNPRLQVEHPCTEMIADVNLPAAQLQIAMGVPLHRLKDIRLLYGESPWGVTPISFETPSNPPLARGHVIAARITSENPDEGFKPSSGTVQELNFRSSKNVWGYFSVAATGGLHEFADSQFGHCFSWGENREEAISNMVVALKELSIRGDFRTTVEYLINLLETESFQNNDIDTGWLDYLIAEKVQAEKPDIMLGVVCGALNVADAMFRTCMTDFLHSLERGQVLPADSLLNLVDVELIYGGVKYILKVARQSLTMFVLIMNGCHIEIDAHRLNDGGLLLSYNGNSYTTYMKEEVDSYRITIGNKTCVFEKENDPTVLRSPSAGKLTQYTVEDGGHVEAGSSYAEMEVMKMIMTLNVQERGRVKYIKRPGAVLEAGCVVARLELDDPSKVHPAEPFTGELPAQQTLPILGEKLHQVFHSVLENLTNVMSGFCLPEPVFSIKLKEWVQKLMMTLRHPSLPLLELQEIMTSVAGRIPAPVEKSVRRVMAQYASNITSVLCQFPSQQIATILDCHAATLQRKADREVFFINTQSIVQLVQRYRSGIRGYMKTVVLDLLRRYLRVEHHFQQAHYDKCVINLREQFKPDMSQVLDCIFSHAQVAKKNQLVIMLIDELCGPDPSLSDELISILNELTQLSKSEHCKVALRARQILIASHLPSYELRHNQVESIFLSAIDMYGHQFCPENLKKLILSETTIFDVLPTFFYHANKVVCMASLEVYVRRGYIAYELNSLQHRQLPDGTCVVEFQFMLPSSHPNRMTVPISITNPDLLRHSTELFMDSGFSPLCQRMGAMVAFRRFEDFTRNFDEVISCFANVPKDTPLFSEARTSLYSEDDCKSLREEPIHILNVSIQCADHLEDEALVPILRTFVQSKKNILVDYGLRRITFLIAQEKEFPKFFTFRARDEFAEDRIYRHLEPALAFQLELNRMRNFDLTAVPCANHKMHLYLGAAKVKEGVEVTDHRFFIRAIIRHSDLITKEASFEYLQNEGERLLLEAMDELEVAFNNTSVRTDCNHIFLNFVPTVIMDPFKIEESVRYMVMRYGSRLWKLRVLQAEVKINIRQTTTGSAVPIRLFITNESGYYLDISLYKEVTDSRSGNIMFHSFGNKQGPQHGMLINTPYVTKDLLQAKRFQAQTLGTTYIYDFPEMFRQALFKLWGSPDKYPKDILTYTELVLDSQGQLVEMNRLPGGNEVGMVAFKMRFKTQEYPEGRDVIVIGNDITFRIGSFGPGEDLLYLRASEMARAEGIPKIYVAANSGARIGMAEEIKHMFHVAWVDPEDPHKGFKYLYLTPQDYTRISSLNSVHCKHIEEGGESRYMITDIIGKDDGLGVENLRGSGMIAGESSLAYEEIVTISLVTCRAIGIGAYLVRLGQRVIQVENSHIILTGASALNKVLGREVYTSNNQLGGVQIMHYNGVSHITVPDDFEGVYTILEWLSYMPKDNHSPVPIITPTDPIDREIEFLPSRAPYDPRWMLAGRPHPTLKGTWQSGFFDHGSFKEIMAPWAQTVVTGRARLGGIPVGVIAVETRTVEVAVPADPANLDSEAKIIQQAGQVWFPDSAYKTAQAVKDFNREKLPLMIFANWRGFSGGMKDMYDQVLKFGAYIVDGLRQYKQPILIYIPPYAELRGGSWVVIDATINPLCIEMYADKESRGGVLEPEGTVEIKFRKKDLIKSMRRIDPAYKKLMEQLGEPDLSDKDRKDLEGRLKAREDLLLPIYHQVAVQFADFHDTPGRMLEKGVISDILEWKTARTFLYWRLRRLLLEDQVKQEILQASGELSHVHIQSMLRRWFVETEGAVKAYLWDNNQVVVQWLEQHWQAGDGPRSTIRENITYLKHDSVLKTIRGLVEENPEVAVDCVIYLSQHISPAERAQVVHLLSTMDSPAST

SMILES	IC50
CC(=O)N[C@@H](C)c1ccc(C2CCN(c3ccc(OC4CCCC4)c(Cl)c3)CC2)cc1 [Example 8.39]	0.11 µM
CCCCOc1ccc(N2CCC(c3ccc([C@H](C)NC(C)=O)cc3)CC2)cc1C [Example 8.40]	1.4 µM
CCCCOc1ccc(N2CCC(c3ccc([C@H](C)NC(C)=O)cc3)CC2)cc1C#N [Example 8.41]	4.2 µM
CCCCOc1ccc(N2CCC(c3ccc([C@H](C)NC(C)=O)cc3)CC2)cc1F [Example 8.42]	0.09 µM
CCCCOc1ccc(N2CCC(c3ccc([C@H](C)NC(C)=O)cc3)CC2)cc1OC [Example 8.43]	2.1 µM
CCCCOc1ccc(N2CCC(c3ccc([C@H](C)NC(C)=O)cc3)CC2)cc1Cl [Example 8.44]	0.29 µM
COc1ccc(N2CCC(c3ccc([C@H](C)NC(C)=O)cc3)CC2)cc1C#N [Example 8.45]	7 µM
COc1ccc(N2CCC(c3ccc([C@H](C)NC(C)=O)cc3)CC2)cc1Cl [Example 8.46]	1 µM
CC(=O)N[C@@H](C)c1ccc(C2CCN(c3ccc(OCC4CCO4)c(C)c3)CC2)cc1 (some centres unmarked) [Example 8.47]	2.6 µM
CC(=O)N[C@@H](C)c1ccc(C2CCN(c3ccc(OCC4CCO4)c(F)c3)CC2)cc1 (some centres unmarked) [Example 8.48]	1.6 µM
COc1cc(N2CCC(c3ccc([C@H](C)NC(C)=O)cc3)CC2)ccc1OCC1CCO1 (some centres unmarked) [Example 8.49]	26.6 µM
CC(=O)N[C@@H](C)c1ccc(C2CCN(c3ccc(OCC4CCO4)c(Cl)c3)CC2)cc1 (some centres unmarked) [Example 8.50]	1.1 µM
CCC(C)Oc1ccc(N2CCC(c3ccc([C@H](C)NC(C)=O)cc3)CC2)cc1C (some centres unmarked) [Example 8.51]	0.76 µM
CCC(C)Oc1ccc(N2CCC(c3ccc([C@H](C)NC(C)=O)cc3)CC2)cc1C#N (some centres unmarked) [Example 8.52]	3 µM
CCC(C)Oc1ccc(N2CCC(c3ccc([C@H](C)NC(C)=O)cc3)CC2)cc1F (some centres unmarked) [Example 8.53]	0.3 µM
CCC(C)Oc1ccc(N2CCC(c3ccc([C@H](C)NC(C)=O)cc3)CC2)cc1OC (some centres unmarked) [Example 8.54]	1.5 µM
CCC(C)Oc1ccc(N2CCC(c3ccc([C@H](C)NC(C)=O)cc3)CC2)cc1Cl (some centres unmarked) [Example 8.55]	0.3 µM
CCCC(C)Oc1ccc(N2CCC(c3ccc([C@H](C)NC(C)=O)cc3)CC2)cc1C (some centres unmarked) [Example 8.56]	1 µM
CCCC(C)Oc1ccc(N2CCC(c3ccc([C@H](C)NC(C)=O)cc3)CC2)cc1C#N (some centres unmarked) [Example 8.57]	3.2 µM
CCCC(C)Oc1ccc(N2CCC(c3ccc([C@H](C)NC(C)=O)cc3)CC2)cc1F (some centres unmarked) [Example 8.58]	0.37 µM
CCCC(C)Oc1ccc(N2CCC(c3ccc([C@H](C)NC(C)=O)cc3)CC2)cc1OC (some centres unmarked) [Example 8.59]	0.84 µM
CCCC(C)Oc1ccc(N2CCC(c3ccc([C@H](C)NC(C)=O)cc3)CC2)cc1Cl (some centres unmarked) [Example 8.60]	0.18 µM
CCOc1ccc(N2CCC(c3ccc([C@H](C)NC(C)=O)cc3)CC2)cc1Cl [Example 8.61]	0.3 µM
CCCOc1ccc(N2CCC(c3ccc([C@H](C)NC(C)=O)cc3)CC2)cc1F [Example 8.62]	0.2 µM
CC(=O)N[C@@H](C)c1ccc(C2CCN(c3ccc(OCCC4CC4)cc3)CC2)cc1 [Example 8.63]	0.1 µM

SMILES	IC50
C/C=C/CCOc1ccc(N2CCC(c3ccc([C@H](C)NC(C)=O)cc3)CC2)cc1 [Example 8.64]	0.12 µM
CC(=O)N[C@@H](C)c1ccc(C2CCN(c3ccc(OCC/C=C/C4CC4)cc3)CC2)cc1 [Example 8.65]	0.22 µM
CC(=O)N[C@@H](C)c1ccc(C2CCN(c3ccc(OCC4CC4(F)F)cc3)CC2)cc1 (some centres unmarked) [Example 8.66]	0.06 µM
CC(=O)N[C@@H](C)c1ccc(C2CCN(c3cccc(OCCC(C)C)c3)CC2)cc1 [Example 9.1, (S)—N-[1-(4-{1-[3-(Isopentyloxy)-phenyl]-piperidin-4-yl}-phenyl)-ethyl]-acetamide]	0.37 µM
CCCC(C)Oc1cccc(N2CCC(c3ccc([C@H](C)NC(C)=O)cc3)CC2)c1 (some centres unmarked) [Example 9.2]	0.3 µM
CC(=O)N[C@@H](C)c1ccc(C2CCN(c3cccc(OC4CCCOC4)c3)CC2)cc1 (some centres unmarked) [Example 9.3]	1.4 µM
CC(=O)N[C@@H](C)c1ccc(C2CCN(c3cccc(OCC(C)(C)C)c3)CC2)cc1 [Example 9.4]	0.04 µM
C=CCOc1cccc(N2CCC(c3ccc([C@H](C)NC(C)=O)cc3)CC2)c1 [Example 9.5]	0.26 µM
CC(=O)N[C@@H](C)c1ccc(C2CCN(c3cccc(OC4CCCCC4)c3)CC2)cc1 [Example 9.6]	0.13 µM
COCCOc1cccc(N2CCC(c3ccc([C@H](C)NC(C)=O)cc3)CC2)c1 [Example 9.7]	0.56 µM
CC#CCOc1cccc(N2CCC(c3ccc([C@H](C)NC(C)=O)cc3)CC2)c1 [Example 9.8]	0.2 µM
COCCCOc1cccc(N2CCC(c3ccc([C@H](C)NC(C)=O)cc3)CC2)c1 [Example 9.9]	0.21 µM
C=CCCOc1cccc(N2CCC(c3ccc([C@H](C)NC(C)=O)cc3)CC2)c1 [Example 9.10]	0.53 µM
CC(=O)N[C@@H](C)c1ccc(C2CCN(c3cccc(OCc4cc(C)on4)c3)CC2)cc1 [Example 9.11]	0.17 µM
CC(=O)N[C@@H](C)c1ccc(C2CCN(c3cccc(OCC4CCC4)c3)CC2)cc1 [Example 9.12]	0.25 µM
CC(=O)N[C@@H](C)c1ccc(C2CCN(c3cccc(OCC4CCOCC4)c3)CC2)cc1 [Example 9.13]	0.57 µM
CC(=O)N[C@@H](C)c1ccc(C2CCN(c3cccc(OCCOC4CC4)c3)CC2)cc1 [Example 9.14]	0.27 µM
CC(=O)N[C@@H](C)c1ccc(C2CCN(c3cccc(OCC4CCCCO4)c3)CC2)cc1 (some centres unmarked) [Example 9.15]	0.37 µM
CCC(CC)Oc1cccc(N2CCC(c3ccc([C@H](C)NC(C)=O)cc3)CC2)c1 [Example 9.16]	0.69 µM
CC(=O)N[C@@H](C)c1ccc(C2CCN(c3cccc(OCc4ccccc4)c3)CC2)cc1 [Example 9.17]	0.55 µM
CC(=O)N[C@@H](C)c1ccc(C2CCN(c3cccc(OC(C)c4ccccc4)c3)CC2)cc1 (some centres unmarked) [Example 9.18]	0.15 µM
CCCC(C)Oc1ccc(N2CCC(c3ccc([C@H](C)NC(C)=O)cc3)CC2)cc1 (some centres unmarked) [Example 9.19]	0.14 µM
CC(=O)N[C@@H](C)c1ccc(C2CCN(c3ccc(OCCC(C)C)cc3)CC2)cc1 [Example 9.20]	0.09 µM
CC(=O)N[C@@H](C)c1ccc(C2CCN(c3ccc(OCC(C)(C)C)cc3)CC2)cc1 [Example 9.21]	0.1 µM
C=CCOc1ccc(N2CCC(c3ccc([C@H](C)NC(C)=O)cc3)CC2)cc1 [Example 9.22]	0.16 µM

SMILES	IC50
CC(=O)N[C@@H](C)c1ccc(C2CCN(c3ccc(OC4CCCCC4)cc3)CC2)cc1 [Example 9.23]	0.2 µM
COCCOc1ccc(N2CCC(c3ccc([C@H](C)NC(C)=O)cc3)CC2)cc1 [Example 9.24]	0.47 µM
CC#CCOc1ccc(N2CCC(c3ccc([C@H](C)NC(C)=O)cc3)CC2)cc1 [Example 9.25]	1.1 µM
COCCCOc1ccc(N2CCC(c3ccc([C@H](C)NC(C)=O)cc3)CC2)cc1 [Example 9.26]	0.22 µM
C=CCCOc1ccc(N2CCC(c3ccc([C@H](C)NC(C)=O)cc3)CC2)cc1 [Example 9.27]	0.07 µM
CC(=O)N[C@@H](C)c1ccc(C2CCN(c3ccc(OCc4cc(C)on4)cc3)CC2)cc1 [Example 9.28]	0.78 µM
CC(=O)N[C@@H](C)c1ccc(C2CCN(c3ccc(OCC4CCC4)cc3)CC2)cc1 [Example 9.29]	0.06 µM
CC(=O)N[C@@H](C)c1ccc(C2CCN(c3ccc(OCC4CCOCC4)cc3)CC2)cc1 [Example 9.30]	2.3 µM
CC(=O)N[C@@H](C)c1ccc(C2CCN(c3ccc(OCCOC4CC4)cc3)CC2)cc1 [Example 9.31]	4.8 µM
CC(=O)N[C@@H](C)c1ccc(C2CCN(c3ccc(OCC4CCCCO4)cc3)CC2)cc1 (some centres unmarked) [Example 9.32]	0.99 µM
CCC(CC)Oc1ccc(N2CCC(c3ccc([C@H](C)NC(C)=O)cc3)CC2)cc1 [Example 9.33]	0.12 µM
CC(=O)N[C@@H](C)c1ccc(C2CCN(c3ccc(OCc4ccccc4)cc3)CC2)cc1 [Example 9.34]	0.15 µM
CC(=O)N[C@@H](C)c1ccc(C2CCN(c3ccc(OC(C)c4ccccc4)cc3)CC2)cc1 (some centres unmarked) [Example 9.35]	0.21 µM
CC(=O)N[C@@H](C)c1ccc(C2CCN(c3ccc(OCC4CCC4)c(C#N)c3)CC2)cc1 [Example 9.36]	3.3 µM
CC(=O)N[C@@H](C)c1ccc(C2CCN(c3ccc(OCC4CCC4)c(C)c3)CC2)cc1 [Example 9.37]	0.69 µM
CC(=O)N[C@@H](C)c1ccc(C2CCN(c3ccc(OCC4CC4)c(C)c3)CC2)cc1 [Example 9.38]	0.41 µM
CC(=O)N[C@@H](C)c1ccc(C2CCN(c3ccc(OCC4CC4)c(C#N)c3)CC2)cc1 [Example 9.40]	2.9 µM
CC(=O)N[C@@H](C)c1ccc(C2CCN(c3ccc(OCC4CC4)c(F)c3)CC2)cc1 [Example 9.41]	0.22 µM
CC(=O)N[C@@H](C)c1ccc(C2CCN(c3ccc(OCC4CCC4)c(F)c3)CC2)cc1 [Example 9.42]	0.16 µM
COc1cc(N2CCC(c3ccc([C@H](C)NC(C)=O)cc3)CC2)ccc1OCC1CCC1 [Example 9.43]	0.43 µM
COc1cc(N2CCC(c3ccc([C@H](C)NC(C)=O)cc3)CC2)ccc1OCC1CC1 [Example 9.44]	0.48 µM
CC(=O)N[C@@H](C)c1ccc(C2CCN(c3ccc(OCC4CCC4)c(Cl)c3)CC2)cc1 [Example 9.45]	0.38 µM
CC(=O)N[C@@H](C)c1ccc(C2CCN(c3ccc(OCC4CC4)c(Cl)c3)CC2)cc1 [Example 9.46]	0.56 µM
CC(=O)N[C@@H](C)c1ccc(C2CCN(c3ncc(-c4ccc(C#N)c(F)c4)cn3)CC2)cc1 [Example 10.1, (S)—N-[1-(4-{1-[5-(4-Cyano-3-fluorophenyl)-pyrimidin-2-yl]-piperidin-4-yl}-phenyl)ethyl]-acetamide]	0.05 µM

From patent publication US9006450B2 (Boehringer Ingelheim International GmbH, priority 2010, dated 2015)
